Measurements as given in BindingDB's records for PubMed 40188441 (Shanghai Jiao Tong University).

Assay: Inhibition of human STING in human THP-1 Dual cells assessed as secreted luciferase reporter of interferon stimulated gene (ISG) measured after 24 hrs incubation by QUANTI-Luc detection assay

Structure (SMILES) | IC50 [nM]
Cc1ccc2c(NC(=O)N3CCc4[nH]c5c(Cl)c(Cl)ccc5c4C3)c[nH]c2c1 | > 10000
O=C(Nc1ccc2c(c1)NCC2)Nc1c[nH]c2ccc(F)cc12 | 1220
O=C(Nc1ccc2c(c1)OC(F)(F)O2)Nc1c[nH]c2ccc(-c3cn(CCN4CCOCC4)nn3)cc12 | > 10000
O=C(Nc1c[nH]c2cc(Cl)ccc12)N1CCc2[nH]c3c(Cl)c(Cl)ccc3c2C1 | 3310
O=C(Nc1ccc2c(c1)OC(F)(F)O2)Nc1c[nH]c2ccccc12 | 18
O=C(Nc1cccc2c1OC(F)(F)O2)Nc1c[nH]c2ccccc12 | 1830
COC(=O)/C=C/c1ccc2[nH]cc(NC(=O)Nc3ccc4c(c3)OC(F)(F)O4)c2c1 | 3650
O=C(Nc1ccc2c(c1)OCO2)Nc1c[nH]c2ccc(F)cc12 | 3470
Cn1cc(C#Cc2ccc3[nH]cc(NC(=O)Nc4ccc5c(c4)OC(F)(F)O5)c3c2)cn1 | 264
O=C(Nc1c[nH]c2ccc(F)cc12)N1CCc2oc3c(Cl)c(Cl)ccc3c2C1 | 382
CCOP(=O)(Cc1ccc2[nH]cc(NC(=O)Nc3ccc4c(c3)OC(F)(F)O4)c2c1)OCC | > 10000
O=C(Nc1ccc2c(c1)OC(F)(F)O2)Nc1c[nH]c2ccc(Cl)cc12 | 66
CN1CCc2cc(NC(=O)Nc3c[nH]c4ccc(F)cc34)ccc21 | 1180
O=C(Nc1ccc2c(c1)OC(F)(F)C(F)(F)O2)Nc1c[nH]c2ccc(F)cc12 | 110
O=C(Nc1ccc2c(c1)OC(F)(F)O2)Nc1c[nH]c2ccc(C#CC(F)(F)F)cc12 | > 10000
O=C(Nc1ccc2c(c1)OC(F)(F)O2)Nc1c[nH]c2ccc(-c3cn(CCO)nn3)cc12 | > 10000
C#Cc1ccc2[nH]cc(NC(=O)Nc3ccc4c(c3)OC(F)(F)O4)c2c1 | 119
CC(=O)OCC#Cc1ccc2[nH]cc(NC(=O)Nc3ccc4c(c3)OC(F)(F)O4)c2c1 | 489
COc1ccc2[nH]cc(NC(=O)N3CCc4[nH]c5c(Cl)c(Cl)ccc5c4C3)c2c1 | 2380
N#C/C=C/c1ccc2[nH]cc(NC(=O)Nc3ccc4c(c3)OC(F)(F)O4)c2c1 | > 10000
COc1ccc2c(NC(=O)N3CCc4[nH]c5c(Cl)c(Cl)ccc5c4C3)c[nH]c2c1 | > 10000
O=C(Nc1c[nH]c2ccccc12)N1CCc2[nH]c3c(Cl)c(Cl)cc(Br)c3c2C1 | 2050
O=C(Nc1ccc2c(c1)OC(F)(F)O2)Nc1c[nH]c2ccc(C#CC3CC3)cc12 | 258
O=C(Nc1ccc2c(c1)OCCO2)Nc1c[nH]c2ccc(F)cc12 | 1350
O=C(Nc1c[nH]c2ccc(Br)cc12)N1CCc2[nH]c3c(Cl)c(Cl)ccc3c2C1 | 791
Fc1cc2[nH]cc(Nc3nc4cc(C5CCCC5)ccc4[nH]3)c2cc1F | 216
O=C(Nc1ccc2c(c1)OC(F)(F)O2)Nc1c[nH]c2ccc(C#CCO)cc12 | 2190
O=C(Nc1c[nH]c2ccc(F)cc12)N1CCc2[nH]c3c(Cl)c(Cl)ccc3c2C1 | 2400
Fc1ccc2[nH]cc(Nc3nc4cc(C5CCCC5)ccc4[nH]3)c2c1 | 43

Results, then the compound that gave them:

IC50 [nM] | Structure (SMILES)
3180 | O=C(Nc1c[nH]c2cc(F)ccc12)N1CCc2[nH]c3c(Cl)c(Cl)ccc3c2C1
> 10000 | O=C(Nc1ccc2c(c1)CCN2)Nc1c[nH]c2ccc(F)cc12
269 | Fc1ccc2[nH]cc(Nc3nc4cc(C(F)(C(F)(F)F)C(F)(F)F)ccc4[nH]3)c2c1
44 | Fc1cnc2[nH]cc(Nc3nc4cc(C5CCCC5)ccc4[nH]3)c2c1
> 10000 | Cn1ccc(-c2cc(Cl)c(Cl)c3[nH]c4c(c23)CN(C(=O)Nc2c[nH]c3ccccc23)CC4)n1
2120 | O=C(Nc1c[nH]c2ccccc12)N1CCc2[nH]c3c(Cl)c(Cl)ccc3c2C1
116 | N#CC/C=C/c1ccc2[nH]cc(NC(=O)Nc3ccc4c(c3)OC(F)(F)O4)c2c1
71 | O=C(Nc1ccc2c(c1)OC(F)(F)O2)Nc1c[nH]c2ccc(Br)cc12
> 10000 | C=CC(=O)Nc1ccc2[nH]cc(NC(=O)Nc3ccc4c(c3)OC(F)(F)O4)c2c1
353 | O=C(Nc1c[nH]c2ccc(Br)cc12)N1CCc2oc3c(Cl)c(Cl)ccc3c2C1
> 10000 | O=C(Nc1ccc2c(c1)COB2O)Nc1c[nH]c2ccc(F)cc12
2490 | COCCOCCn1cc(-c2ccc3[nH]cc(NC(=O)Nc4ccc5c(c4)OC(F)(F)O5)c3c2)nn1
192 | Fc1ccc2[nH]cc(Nc3nc4cc5c(cc4[nH]3)OC(F)(F)O5)c2c1
